Test results reported in article PMC5667422 (Theranostics, 2017).

Test system: integrin α2β1 expression in A549 cells
Experiment: Integrin α2β1 expression in A549 cells after doxorubicin treatment
Format: cell-based, human
Details: doxorubicin 4 μg/mL

COc1cccc2c1C(=O)c1c(O)c3c(c(O)c1C2=O)C[C@@](O)(C(=O)CO)C[C@@H]3O[C@H]1C[C@H](N)[C@H](O)[C@H](C)O1 [doxorubicin]
integrin α2 and β1 protein levels by Western blot after treatment (48 h, semi-quantitative, p < 0.01): markedly higher level of both integrin proteins | integrin α2β1 expression by FACS after treatment (48 h vs wild-type): clear shift in the abundance of integrin α2β1
